In patent publication US20090137493A1, “Inhibition of tumor metastases using protein kinase C (PKC) inhibitors” (priority 2007, published 2009):
Bridges are numbered along the chain shown (N, C = ends). Where no end group is shown, it is not given here.

Assays:
4T1 tumor cells = test: Growth of primary tumors in vivo (number of tumor cells at primary site of injection); design: species or system mice; settings: animals injected with 4T1 tumor cells, FIG. 6A, versus saline
Protocol: FIG. 6A is a bar graph showing the affect of saline, the αV5-3-TAT conjugate peptide (αPKC), or the βIIV5-3-TAT conjugate peptide (βPKC) on the growth rate of primary tumors in vivo.
(§1) To determine if the effects observed with the α and βIIPKC peptide inhibitors was due to a decrease in metastasis as opposed to a decrease in primary tumor growth, animals injected with 4T1 tumor cells were treated with saline, the αV5-3-TAT conjugate peptide (αPKC), or the βIIV5-3-TAT conjugate peptide (βPKC) and the number of tumors cells at the primary site of injection were determined.

tumor cells = test: Survival of animals after intravenous administration of tumor cells; format: in vivo, mice; settings: versus saline (PBS)
Protocol: FIG. 9 is a graph showing the percent surviving animals in the time (in days) following intravenous administration of tumor cells. The mice were treated with saline (squares; PBS) or the αV5-3-TAT peptide (circles; peptide).

JC tumor cells = test: Growth rate of JC tumor cells in vitro; format: cell-based, mouse; settings: doses of 0, 1, 5 and 10 μM, compared to TAT carrier peptide control
Protocol: FIGS. 6B-6C are bar graphs showing the affect of the αV5-3-TAT peptide on growth rate of JC tumor cells (FIG. 6B) and 4T1 tumor cells (FIG. 6C) in vitro. The cells treated with the TAT carrier peptide (TAT) or with αV5-3-TAT peptide (PKC alpha inhibitor), at doses of 0, 1, 5, and 10 μM.
as §1

[1] = Blood cell numbers (white blood cells, lymphocytes, neutrophils) in treated animals; format: in vivo
Text: FIGS. 11A-11B are bar graphs showing the relative serum levels of liver enzymes aspartate transaminase (AST; FIG. 11A) and alanine transaminase (ALT; FIG. 11B) in animals treated with saline or TAT (untreated) or the αV5-3-TAT peptide (aV5-3). FIGS. 11C-11E are bar graphs showing the relative serum levels of white blood cells (FIG. 11C), lymphocytes (FIG. 11D), and neutrophils (FIG. 11E).
Rather, the numbers of white blood cells (FIG. 11C), lymphocytes (FIG. 11D), and neutrophils (FIG. 11E) were all increased in αV5-3 treated animals compared to control (TAT) treated animals.

JC cells = test: Wound healing (migration) assay, JC; format: cell-based, mouse; settings: peptide 1 uM, re-applied every 2 h for 8 h
Protocol: FIGS. 15A-15D are micrographs showing the efficacy of TAT carrier peptide (TAT; FIG. 15A), αV5-3-TAT peptide (Alpha; FIG. 15B), βIIV5-3 peptide (Beta2; FIG. 15C), and εV1-2 (Epsilon; FIG. 15D) on JC cell migration.
To investigate the role of PKC inhibitors in reducing the migration of tumor cells, in vitro migration assays were performed using MDA-MB-231 breast cancer cells (FIGS. 12A-12D), MCF-7 breast cancer cell (FIGS. 13A-13D), JC cells (FIGS. 15A-15D), and 4T1 cells (FIGS. 16A-16D), in the presence of TAT carrier peptide (TAT), αV5-3-TAT peptide (Alpha), βIIV5-3 peptide (Beta2), or εV1-2 peptide (Epsilon).
Wound healing assay: Human or mouse breast cancer cell lines were grown in 6-well plates until about 90% confluent. Cells were then grown in serum free media overnight, before media was changed to media +1% FBS and peptide PKC inhibitors added (1 uM), at the same time a pipette tip was drawn across the cell layer to create a scrape ‘wound’. PKC inhibitors were re-applied every 2 h for a total of 8 h, before cells were left for a further 12 h and then the scrape was examined under phase contrast microscopy.

[2] = tested on: 4T1 murine mammary cancer cells; test: Lung metastasis of luciferase-tagged 4T1 tumors in mice, imaging (relative light units); format: in vivo; settings: 4T1-luciferase tumor-bearing mice, osmotic pump, about 35 mg/kg/day, four weeks
Protocol: To determine whether specific PKC inhibitors could reduce the amount of PKC translocation/activation in vivo and thereby reduce tumor cell metastasis, animals were administered an αPKC peptide inhibitor, or appropriate control, via an implanted osmotic pump, following the injection of luciferase-tagged tumor cells. […] The data are summarized in the bar graph shown in FIG. 4, along with similar data relating to the use of a βIIV5-3-TAT conjugate peptide (βPKC; SEQ ID NO: 27). The extent of lung metastasis is expressed as relative light units.
Balb/c female mice (6 weeks old) were injected semi-orthotopically with 4T1 murine mammary cancer cells tagged with luciferase ([…] cells/100 μL). One week later, an osmotic minipump was implanted subcutaneously in each animal, for delivery of saline (control), TAT peptide (control, YGRKKRRQRRR, SEQ ID NO: 25), the peptide inhibitor αV5-3 (QLVIAN, SEQ ID NO: 6) attached via an N-terminal disulfide bond to TAT peptide (YGRKKRRQRRR-CC-QLVIAN, SEQ ID NO: 26).
In other experiments, the peptide inhibitor βIIV5-3 (QEVIAN, SEQ ID NO: 13) or εV1-2 (EAVSLKPT, SEQ ID NO: 20) is attached via an N-terminal disulfide bond to the TAT peptide (SEQ ID NOs: 27 and 28, respectively). The TAT control, αV5-3-TAT, βIIV5-3-TAT, or εV1-2-TAT conjugate peptides are administered at about 35 mg/kg/day for two and four weeks.
After two weeks of treatment with αV5-3-TAT, some animals were selected form imaging (IVIS® 29, Xenogen Corporation, Alameda, Calif.) and analysis, with the remaining animals imaged after four weeks of treatment.
FIG. 4 is a bar graph showing the extent of lung metastasis, expressed as relative light units (based on imaging as exemplified in FIG. 3), in tumor-bearing mice treated for four weeks with saline, the αV5-3-TAT conjugate peptide (αPKC), or the βIIV5-3-TAT conjugate peptide (βPKC). The extent of lung metastasis, quantified approximately by the relative light units, for mice treated with saline, the αPKC inhibitor, and the βIIV5-3 PKC inhibitor peptide is shown. The extent of lung metastases is reduced in the animals treated with the αPKC inhibitor.

αPKC = target: T1, αPKC (Mus musculus, UniProt P20444); test: Translocation of αPKC in tumor cells (immunoblot of cytosol and particulate fractions); format: in vivo; settings: FIG. 5A
T1 construct: endogenous in cells; host or cells: 4T1 murine mammary tumour cells grown as tumours in Balb/c mice
Protocol: FIGS. 5A-5B are bar graphs showing the percentage of translocation of αPKC (FIG. 5A) and βIIPKC (FIG. 5B) […] in tumor cells treated with αV5-3-TAT peptide.
To further characterize inhibition of metastasis using the α and βIIPKC inhibitors, the percentage of translocation of αPKC (FIG. 5A) and βIIPKC (FIG. 5B), […] was measured.

YGRKKRRQRRR-CC-QLVIAN (YGRKKRRQRRRCCQLVIAN; disulfide 12-13 (inferred)) [αV5-3-TAT]
reduction in the number of cells at the primary tumor site (4T1 tumor cells): two-fold | survival time (tumor cells): longer survival times | inhibition of growth of JC tumor cells in vitro (JC tumor cells): does not substantially inhibit | numbers of white blood cells ([1]; compared to control (TAT) treated animals, FIG. 11C): increased | numbers of lymphocytes ([1]; compared to control (TAT) treated animals, FIG. 11D): increased | numbers of neutrophils ([1]; compared to control (TAT) treated animals, FIG. 11E): increased | signs of immunosuppression ([1]; treated animals, FIGS. 11C-11E): no signs of immunosuppression | migration of JC cells (JC cells): reduced | effect on lung metastasis compared to control animals (in words) [2]: reduced | reduction of lung metastasis compared to control animals [2]: 4 to 5 fold | reduction of αPKC translocation (αPKC): about 40%
